Laboratory results reported in patent publication US20120178089A1, “MATERIALS AND METHODS FOR THE IDENTIFICATION OF DRUG-RESISTANT CANCERS AND TREATMENT OF SAME” (priority 2009, published 2012).
Entries after “also recorded” stand apart in the source; their conditions may differ.

Experiments:
[1] = system: NEK2-transfected ARP1, KMS28PE, H1299, MCF7, and MDA231 cells; experiment: Treatment of NEK2-overexpressing cancer cells with chemotherapeutic drugs; type: cell-based; details: 48 hours; for growth inhibition in NEK2-transfected cells compared with EV-transfected controls: P<0.05; for cell death in NEK2-transfected cells compared with EV-transfected controls: P<0.05, data not shown
Description: Treatment of NEK2-overexpressing MM cells with chemotherapeutic drugs. To determine the role of NEK2 in cancer drug-resistance, ARK, KMS28PE, OCI-MY5, H1299, and MCF7 cell lines were transfected with NEK2-cDNA to overexpress NEK2 by lentivirus expression vector system. 1×10^6 cells were treated with bortezomib at 5 nM for 48 hours in the cultures. Cell proliferation was evaluated by cell counting with a hemocytometer, and dead cells were determined by trypan blue staining, from which dead-cell fraction was calculated. Untreated cells and empty-vector (EV)-transfected cells with or without drug-treatment were used as controls.
To determine whether NEK2 over-expression is sufficient to confer drug-resistance in cancer cells, NEK2-transfected ARP1, KMS28PE, H1299, MCF7, and MDA231 cells were then treated with bortezomib at the dose of 4, 8, and 16 nM bortezomib for 48 hours and cell death was evaluated. EV-transfected cells with or without bortezomib served as controls.

[2] = system: NEK2 expression in MM, lung cancer and breast cancer cells; experiment: Inhibition of NEK2 expression in cancer cell lines (western blots); type: cell-based; details: especially NEK2 over-expressed
Description: FIG. 7a is a graph showing the results of screening a Kinase Inhibitor Library.
Western Blots. Western blots were performed to examine the protein levels in MM cells as previously described in Xiong, W., et al. Blood 112, 4235-4246 (2008) and Zhan, F., et al. Blood 109, 4995-5001 (2007). NEK2 antibodies were purchased from BD Biosciences Pharmingen (San Jose, Calif.); and all other primary antibodies were purchased from Cell Signaling Technology (Beverly, Mass.). β-actin was used to normalize the amount of protein in each sample.

[3] = system: 5TGM1 multiple myeloma cells; experiment: Efficacy of KP372-1 in a mouse model of multiple myeloma; type: in vivo, C57BL/KaLwRij mice; details: for tumor burden (tumor volumes): FIG. 10b
Description: Efficacy of KP372-1 in a mouse model of multiple myeloma. C57BL/KaLwRij mice (n=5 in each group) were injected with 1×10^6 5TGM1 cells through their tail vein. Seven days following tumor inoculation, tumor-bearing mice were treated with KP372-1, bortezomib or a combination of KP372-1 with bortezomib.
KP372-1 (NI-2) was used to treat 8 mice in each study group including four groups with single agent or combination with bortezomib (velcade). 1×10^6 5TGM1 multiple myeloma cells (in 100 μL PBS) were injected into each mouse through the tail vein and tumors were allowed to grow for 1 week. Treatment with bortezomib (1 mg/kg, 2 times/week, sc), NI-2 (0.8 mg/kg 3 times/week, sc), and the combination of KP372-1 (NI-2) with bortezomib (velcade) was performed 1 week after injection.
We also developed a bortezomib-resistant 5TGM1 line (5TGM1-DR) using a stepwise increase of the bortezomib concentration in the cultures. […] We examined the effects of KP372-1 treatment on the growth of 5TGM1 myeloma mouse. KP372-1 was given to 8 mice in each of the five groups, including single agent or combination treatment with bortezomib: 5TGM1-WT, 5TGM1-DR, 5TGM1-DR+KP372-1 (0.8 mg/kg, 3 times/week, s.c), 5TGM1-DR+bortezomib (1 mg/kg, 2 times/week, s.c), 5TGM1-DR+bortezomib+KP372-1.

[4] = system: KMS28PE and ARP1 cells, bortezomib-resistant (vel-R) and bortezomib-sensitive; experiment: KP372-1 treatment of bortezomib-resistant and bortezomib-sensitive myeloma cell lines; type: cell-based
Description: FIGS. 9a-9d are a series of graphs showing the treatment with KP372-1 overcomes drug-resistance in cancer cells. The myeloma cell lines KMS28PE (A & B) and ARP1 (C & D) including both bortezomib-sensitive and bortezomib-resistant (vel-R) were treated with KP372-1 at concentrations of 1 μM and 5 μM for 5 days.
To determine whether the NEK2 inhibitor KP372-1 can overcome drug resistance in KMS28PE- and ARP1-bortezomib resistant myeloma cell lines, we treated with KP372-1 at concentrations of 1 μM and 5 μM.

[5] = molecular target: Purified recombinant NEK2 kinase protein (Homo sapiens, UniProt P51955); details: read-out: IC50 (NEK2 kinase activity, titration assays); titration of screening hits
Description: NEK2 kinase activity assay. Purified recombinant NEK2 kinase protein (Cell Signaling Technology, Beverley, Mass.), was added to 96 well plates in the appropriate reaction buffer. Compounds were added to each well to a final concentration of 5 μM. Reaction mixtures were incubated for 15 minutes. The Kinase-Glo Luminescent Kinase Assay kit (Promega, Madison, Wis.) was used to determine the remaining ATP, which is inversely related to kinase activity.
By NEK2 kinase activity assay, we screened a Kinase Inhibitor Library from Calbiochem Inc. (San Diego, Calif.).

[6] = system: NEK2-transfected OCI-MY5, H1299 and MCF7 cells and EV control cells; experiment: Cytotoxic effects of KP372-1 on NEK2-overexpressing cell lines; type: cell-based; details: 5 μM, 5 days
Description: Cell proliferation assay. Briefly, cancer cells transfected with NEK2 cDNA or NEK2 shRNA and their relative controls of empty vector or Scrambled shRNA were seeded in 12-well plates at 0.2×10^6 per well. All tests were set in triplicate or quadruplicate. Cultured cells were counted with a hemocytometer to evaluate cellular proliferation, and dead cells were determined by trypan blue staining, from which dead-cell fraction was calculated. Cell proliferation assays were done at various time points for at least one week after infection or addition doxycycline one day.
We then determined the cytotoxic effects of this compound KP372-1 on the NEK2-overexpressing myeloma cell lines. Cultures of cell lines transfected with a vector for overexpression of NEK2 (myeloma OCI-MY5, a lung cancer cell line H1299, and a breast cancer cell line MCF7) were treated with 5 μM KP372-1 for 5 days. Cell proliferation and cell death were evaluated. Empty vector (EV)-transfected cancer cells with or without treatment were used as controls.

[7] = system: RPMI8226 cells; experiment: Bortezomib treatment of bortezomib-resistant and parental RPMI8226 cells; type: cell-based; details: Homo sapiens
From the text: (§1) To test the role of NEK2 in promoting cell growth, we over-expressed NEK2 in normal fibroblasts BJ, the MM cell lines ARP1, KMS28PE, and OCI-MY5, the lung cancer cell line H1299, and breast cancer cell line MDA231 by lentivirus-mediated NEK2-cDNA transfection (FIG. 2a). […] We subsequently examined the role of NEK2 in myeloma drug-resistance. We developed 2 bortezomib-resistant MM cell lines, RPMI 8226 and ARP1, by a stepwise increase of the bortezomib concentration in cultures.

[8] = system: ARP1 cells; experiment: Bortezomib treatment of bortezomib-resistant and parental ARP1 cells; type: cell-based
From the text: as §1

[9] = system: 5TGM1 cells; experiment: Bortezomib treatment of bortezomib-resistant and wild-type 5TGM1 cells; type: cell-based
[10] = KP372-1 1 μM and 5 μM, 5 days, both vel-R and sensitive lines
[11] = NEK2-transfected and EV control cells

Sequence of Purified recombinant NEK2 kinase protein (P51955 whole entry): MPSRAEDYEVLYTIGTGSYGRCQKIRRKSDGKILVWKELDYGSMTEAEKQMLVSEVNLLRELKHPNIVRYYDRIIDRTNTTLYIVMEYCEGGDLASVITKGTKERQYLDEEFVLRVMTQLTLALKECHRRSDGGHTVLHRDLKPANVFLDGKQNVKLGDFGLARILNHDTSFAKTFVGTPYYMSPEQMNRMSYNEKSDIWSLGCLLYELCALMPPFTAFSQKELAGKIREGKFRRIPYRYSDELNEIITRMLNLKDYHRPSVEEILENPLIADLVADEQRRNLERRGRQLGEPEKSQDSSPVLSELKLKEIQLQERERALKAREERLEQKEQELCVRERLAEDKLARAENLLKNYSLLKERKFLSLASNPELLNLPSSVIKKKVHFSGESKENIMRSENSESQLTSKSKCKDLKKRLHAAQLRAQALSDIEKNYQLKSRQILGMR

COc1cccc2c1C(=O)c1c(O)c3c(c(O)c1C2=O)C[C@@](O)(C(=O)CO)C[C@@H]3O[C@H]1C[C@H](N)[C@H](O)[C@H](C)O1 [doxorubicin]
growth inhibition in NEK2-transfected cells compared with EV-transfected controls ([1]; 100 nM): significantly less growth inhibition
cell death in NEK2-transfected cells compared with EV-transfected controls ([1]; 100 nM): significantly less

O=C1c2ccccc2-c2nc3nnnn3nc21.O=C1c2ccccc2-c2nn3nnnc3nc21 [KP372-1]
NEK2 expression [2]: significantly inhibits NEK2 expression
NEK2 expression ([2]; listed as NI-2): inhibits NEK2 expression
tumor burden (tumor volumes) ([3]; P<0.05): reduced tumor burden
mouse survival, 5TGM1-DR mice ([3]; KP372-1 0.8 mg/kg, 3 times/week, s.c, P<0.01): able to overcome drug resistance and extend mouse survival
growth of 5TGM1 tumors compared with untreated control ([3]; NI-2 0.8 mg/kg 3 times/week sc, bortezomib 1 mg/kg 2 times/week sc, start 1 week after injection, P<0.05): significantly inhibited the growth of 5TGM1 tumors
cell death [4, 10]: cell death
growth inhibition [4, 10]: significant growth inhibition
IC50 [5]: 67 nM
anti-proliferative and apoptotic activity, NEK2-transfected versus EV control cells [6]: stronger anti-proliferative and apoptotic activity in the NEK2-transfected cells than the EV control cells
cell death [6, 11]: induced significantly cell death; also recorded: induced cell growth inhibition and death
growth inhibition [6, 11]: induced significantly cell death and growth inhibition

COc1cc([C@@H]2c3cc4c(cc3[C@@H](O[C@@H]3O[C@@H]5CO[C@@H](C)O[C@H]5[C@H](O)[C@H]3O)[C@H]3COC(=O)[C@H]23)OCO4)cc(OC)c1O [etoposide]
growth inhibition in NEK2-transfected cells compared with EV-transfected controls ([1]; 100 nM): significantly less growth inhibition
cell death in NEK2-transfected cells compared with EV-transfected controls ([1]; 100 nM): significantly less

CC(C)C[C@H](NC(=O)[C@H](Cc1ccccc1)NC(=O)c1cnccn1)B(O)O [bortezomib]
growth inhibition in NEK2-transfected cells compared with EV-transfected controls ([1]; 8 nM): significantly less growth inhibition
IC50 ([7]; RPMI-8226, parental RPMI8226 cells): 4.75 nM
IC50 ([7]; bortezomib-resistant RPMI8226 cells): 250 nM
IC50 ([8]; ARP-1, bortezomib-resistant ARP1 cells): 25.8 nM
IC50 ([8]; ARP-1, parental ARP1 cells): 7.47 nM
tumor burden (tumor volumes) ([3]; P<0.05): reduced tumor burden
cell death in drug-resistant cells compared with parental controls ([4]; bortezomib treatment): significantly less growth inhibition and cell death
growth inhibition in drug-resistant cells compared with parental controls ([4]; bortezomib treatment): significantly less growth inhibition
IC50 ([9]; 5TGM1, 5TGM1-R (bortezomib-resistant)): 250 nM
IC50 ([9]; 5TGM1, wild-type 5TGM1 cells (5TGM1-WT)): 5.26 nM
